Where “and” joins values, the source holds several entries; their conditions need not be identical. Identical values can stand only once. Like-named read-outs stand apart in the source and are kept apart here.

In one data set the target is P-gp versus MRP1 (Homo sapiens, UniProt P08183). Kind of data set: Calcein-AM transport inhibition in MDCK-MDR1 cells overexpressing P-gp. The conditions noted are these: human, MDCK-MDR1 cells and MDCK-MRP1 cells, probe calcein-AM.
In data set [1] the target is T1, P-glycoprotein (P-gp) (Homo sapiens, UniProt P08183). The data set is described as above. The conditions noted are these: for IC50: P-gp, IC50, MDCK-MDR1 cells, calcein-AM, mean (SD), at least two independent experiments in triplicate.
T1 sequence (P08183 whole entry): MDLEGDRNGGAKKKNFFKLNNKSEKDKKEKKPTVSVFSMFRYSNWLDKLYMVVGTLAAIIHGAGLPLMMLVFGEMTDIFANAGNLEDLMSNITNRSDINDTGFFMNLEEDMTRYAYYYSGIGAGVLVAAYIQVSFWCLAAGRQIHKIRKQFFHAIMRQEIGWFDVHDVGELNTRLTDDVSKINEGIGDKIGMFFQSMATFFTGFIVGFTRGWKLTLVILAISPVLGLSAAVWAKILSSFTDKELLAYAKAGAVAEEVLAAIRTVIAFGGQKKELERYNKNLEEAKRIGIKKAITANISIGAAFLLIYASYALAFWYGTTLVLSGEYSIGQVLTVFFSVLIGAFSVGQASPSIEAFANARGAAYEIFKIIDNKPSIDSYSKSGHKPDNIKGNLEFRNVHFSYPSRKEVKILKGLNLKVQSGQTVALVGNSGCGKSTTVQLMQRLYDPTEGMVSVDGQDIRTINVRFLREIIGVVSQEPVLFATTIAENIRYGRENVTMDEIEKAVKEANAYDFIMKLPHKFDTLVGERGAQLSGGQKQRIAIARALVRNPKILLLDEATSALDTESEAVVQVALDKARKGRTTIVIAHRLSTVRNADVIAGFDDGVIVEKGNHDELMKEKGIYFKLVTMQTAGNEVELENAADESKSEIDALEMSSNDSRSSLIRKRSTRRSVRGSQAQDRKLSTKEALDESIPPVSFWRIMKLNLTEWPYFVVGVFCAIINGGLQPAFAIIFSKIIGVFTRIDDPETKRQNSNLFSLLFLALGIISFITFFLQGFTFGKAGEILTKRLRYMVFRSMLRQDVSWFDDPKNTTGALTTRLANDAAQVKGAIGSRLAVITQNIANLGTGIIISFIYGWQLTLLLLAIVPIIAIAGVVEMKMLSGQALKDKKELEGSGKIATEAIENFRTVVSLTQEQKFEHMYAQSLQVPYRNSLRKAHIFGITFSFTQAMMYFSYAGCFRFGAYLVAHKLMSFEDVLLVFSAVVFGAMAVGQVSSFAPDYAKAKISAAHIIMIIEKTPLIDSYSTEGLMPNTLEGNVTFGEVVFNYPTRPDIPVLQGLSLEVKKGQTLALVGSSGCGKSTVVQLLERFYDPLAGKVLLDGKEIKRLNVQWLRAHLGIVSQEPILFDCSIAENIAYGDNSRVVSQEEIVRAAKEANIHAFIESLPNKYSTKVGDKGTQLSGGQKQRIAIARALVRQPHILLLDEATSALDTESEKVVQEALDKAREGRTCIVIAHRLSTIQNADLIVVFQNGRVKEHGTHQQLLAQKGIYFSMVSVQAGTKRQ
Protocol: (§3) The P-gp inhibitory potency of eight DHPIQs was evaluated by measuring the transport inhibition of calcein-AM, a profluorescent P-gp substrate, in the MDCK-MDR1 cell line overexpressing P-gp. Moreover, to evaluate the MRP1 inhibitor activity, the same compounds were screened in MDCK-MRP1 cells overexpressing MRP1.
(§4) According to previously described assays [9], MDCK-MDR1 and MDCK-MRP1 cell lines (50,000 cells per well) were seeded into a black CulturePlate 96-well plate with 100 μL medium and allowed to become confluent overnight. […] Saline buffer (100 μL) was added to each well, and the plate was read by a PerkinElmer Victor3 spectrofluorimeter at excitation and emission wavelengths of 485 nm and 535 nm, respectively. In these experimental conditions, calcein cell accumulation in the absence and in the presence of the test compound was evaluated, and the fluorescence basal level was estimated by untreated cells. In the treated wells, the increase of fluorescence with respect to basal level was measured. IC50 values were determined by interpolating the curve of fluorescence increase percentage versus log [conc.].
Data set [2] concerns the target multidrug-resistance-associated protein-1 (MRP1) (Homo sapiens, UniProt P33527). Briefly: Calcein-AM transport inhibition in MDCK-MRP1 cells overexpressing MRP1.
Protocol: as §3, §4
The test system of data set [3] is RD (rhabdomyosarcoma) cells. Briefly: MTT antiproliferative (cytotoxicity) assay, RD cells. The data set is classed as cell-based, Human. The conditions noted are these: 72 h, mean (SD), triplicate, n.a. = not active at 100 μM, >100 = less than 60% inhibition at 100 μM. On the procedure: (§1) The newly synthesized 1-Ph-DHPIQs, along with the previously reported derivatives 4a, 4c, 6a and 6c, with camptothecin and doxorubicin as positive controls, were tested at the maximum concentration of 100 μM for their antiproliferative activity, using an MTT assay on RD, HCT116, HeLa and A549 cancer cell lines. Compounds showing more than 50% inhibition were tested at lower scalar concentrations, and IC50 values were calculated by interpolation of the dose-response curves (Table 1). […]
(§2) The antiproliferative activity of the newly synthesized compounds, along with some previously reported analogs, and camptothecin and doxorubicin as positive controls was determined by the MTT (3-(4,5-dimethylthiazol-2-yl)-2,5-diphenyltetrazolium bromide) assay. The cells were seeded at a concentration of 1 × 10 ^4 cells/200 μL in a 96-well plate and cultured at 37 °C in a humidified atmosphere with 5% CO2. After 24 h of incubation, scalar concentrations of each test compound (100 to 1.56 μmol·L^−1) were added to the cancer cell culture and the cells were then cultured under the same conditions for 72 hr. Each concentration of the test compound was assayed in triplicate. […] Wells with the 0.1% v/v DMSO were used as controls. After incubation, 20 μL of MTT (5 mg·mL^−1) was added to each well and the plates were incubated for a further 2 h. Next, media were removed from the plates, and 100 μL of DMSO was added to each well to dissolve the formed formazan crystals. Using a flatbed analyzer (Victor^3, PerkinElmer, Waltham, MA, USA), the optical density was determined at 530 nm, minus the measured background absorbance at 620 nm. The concentration value, which causes 50% inhibition of cell population growth (IC50), was determined from the dose-dependent curves using the OriginPro 9.0 software.

In data set [4] the test system is HeLa (adenocarcinoma of the cervix uterus) cells. Kind of data set: MTT antiproliferative (cytotoxicity) assay, HeLa cells. The data set is classed as cell-based, Human. As to conditions: 72 h, mean (SD), triplicate, n.a. = not active at 100 μM, >100 = less than 60% inhibition at 100 μM. On the procedure: as §1, §2
The nature of data set [5]: Kinetic solubility in PBS by RP-HPLC. The data set is classed as physicochemical. As to conditions: phosphate buffered saline, 25 °C, kinetic from dmso stock. On the procedure:
Sample solution at 200 μM in PBS (50 mM, pH 7.4, KCl 0.15 M) from a 10 mM stock solution in DMSO was incubated at room temperature (25 ± 1 °C) for 2 h, following shaking of the suspension on an orbital shaker at 250 rpm, and then separated by […]. Immediately after the filtration step, 100 µL of filtrate was transferred into 100 µL of 1:1 (v/v) mixture of DMSO and PBS (50 mM, pH 7.4, KCl 0.15 M), to avoid precipitation from the saturated solution and analyzed by HPLC. The peak area was plotted against a calibration curve of the tested compound in MeOH [21]. Analytical conditions were as follows. Mobile Phase: MeOH/ammonium formate 20 mM pH 4.7 (70:30, 75:25); MeOH 0.1% TFA/H2O 0.1% TFA (70:30, 60:40); stationary phase: Phenomenex, Kinetex 5 μ, C18, 100 Å (150 × 4.6 mm); flux: 1 mL/min; injection: 10 μL, 265, 290, 320 nm wavelength. HPLC analyses were performed on an Agilent HPLC 1260 Infinity Series Integrated System (Agilent Technologies, Milan, Italy).

In data set [6] the test system is HCT116 (colon cancer) cells. Briefly: MTT antiproliferative (cytotoxicity) assay, HCT116 cells. The class given is cell-based, Human. As to conditions: mean (SD), triplicate, n.a. = not active at 100 μM, >100 = less than 60% inhibition at 100 μM. On the procedure:
as §1, §2

A short description of data set [7]: Lipophilicity by RP-HPLC (polycratic capacity factor). The class given is physicochemical. As to conditions: capacity factor extrapolated to 100% aqueous mobile phase, aqueous component pH 4.7. On the procedure: To quantitate the effect of hydrophobicity on the biological activity of the examined compounds, a relative lipophilicity scale was determined by RP-HPLC [20]. The polycratic capacity factor (log k′w) for each compound in Table 2 was experimentally determined (details in the experimental section) and compared with 1-octanol–water partition coefficient calculated (Clog P) with ACDLabs software (release 10.0; Advanced Chemistry Development, Inc., Toronto, ON, Canada). Log k′w values are quite well correlated with Clog Ps for the whole series (r^2 = 0.791). However, omitting from the regression the two Mannich bases 8b and 8c, which, due to their basicity (pKas about 6.9, estimated by ACDLabs software), should be predominantly in the protonated forms at pH 4.7 (i.e., the pH of the aqueous component of the mobile phase in RP-HPLC), the correlation slightly improves (r^2 = 0.859), providing a linear equation with a slope equal to +0.8 and an intercept of about −0.1.
The lipophilicity parameters were determined by an RP-HPLC technique. Methanol solution of DHPIQ derivatives (1 mg/mL) were analyzed by an Agilent 1260 infinite HPLC system (Agilent Technologies, Milan, Italy) equipped with a diode array detector (DAD), and a Phenomenex, Kinetex 5 μ, C18, 100 Å (150 × 4.6 mm), and eluted with different percentage of mobile phase composition (0.05 increments of MeOH volume fractions in 20 mM ammonium formate buffer at pH 4.7 or water 0.1% v/v TFA, with φ ranging between 0.85 and 0.30). The chromatographic measurements were carried out at 25 ± 1 °C at a flow rate of 1 mL·min^−1 and at 265, 290, 320 nm wavelengths. The log of capacity factors (log k′ = log (tR − t0)/t0) of each compound at different mobile phase compositions was calculated; tR represents the retention time of the solute and t0 is the column dead time, measured as the elution time of a KNO3 solution in MeOH. For each compound, the log k′ values increased linearly with decreasing MeOH volume fraction. The logarithms of the capacity factor extrapolated to 100% aqueous mobile phase (log k′w) were calculated from the linear regressions on at least five data points (r^2 > 0.9984).

Data set [8] in a line: Hydrolytic stability monitored by RP-HPLC. The conditions noted are these: 0.15 M KCl; for Hydrolytic stability at pH 2: 0.01 M HClaq, pH 2, 25 °C; for Hydrolytic stability at pH 7.4: 50 mM PBS, pH 7.4, 25 °C. The data set is classed as physicochemical. The source says: In particular, the transformation of the DHPIQ-2-aldehyde via Mannich reaction (8b,c) opens the road to future developments of new water-soluble antiproliferative DHPIQ derivatives endowed with the ability to inhibit P-gp and reverse MDR.

Data set [9] concerns A549 (lung adenocarcinoma) cells. Kind of data set: MTT antiproliferative (cytotoxicity) assay, A549 cells. The class given is cell-based, Human. As to conditions: mean (SD), triplicate, n.a. = not active at 100 μM, >100 = less than 60% inhibition at 100 μM.
Protocol: The antiproliferative activity of the newly synthesized compounds, along with some previously reported analogs, and camptothecin and doxorubicin as positive controls was determined by the MTT (3-(4,5-dimethylthiazol-2-yl)-2,5-diphenyltetrazolium bromide) assay. […] Each concentration of the test compound was assayed in triplicate. […] Wells with the 0.1% v/v DMSO were used as controls. After incubation, 20 μL of MTT (5 mg·mL^−1) was added to each well and the plates were incubated for a further 2 h. Next, media were removed from the plates, and 100 μL of DMSO was added to each well to dissolve the formed formazan crystals. Using a flatbed analyzer (Victor^3, PerkinElmer, Waltham, MA, USA), the optical density was determined at 530 nm, minus the measured background absorbance at 620 nm.
Data set [10] has as its target T2, human serum albumin (HSA) (Homo sapiens, UniProt P02768). The conditions noted are these: 10 μM, pH 7.4.
Protocol: (§5) By plotting the response at equilibrium, the dissociation constant (KD) value was determined for each test compound.
(§6) Fatty acid-free HSA (A3782 from Merck, KGaA Sigma-Aldrich, Darmstadt, Germany) was applied to functionalize the surface of a COOH V sensor chip (Pall FortèBio, Fremont Boulevard, CA, USA), by using amine coupling (EDC/NHS). HSA aqueous stock solution was diluted at the final concentration of 50 μg·mL^−1 in 10 mM sodium acetate buffer (pH 5.0), and immobilization in peripheral flow cells 1 and 3 (unmodified dextran surface in middle flow cell 2 used as a reference) at a final apparent level of about 5000 RU was achieved by applying the following protocol: injection of EDC/NHS (freshly mixed 0.4 M EDC and 0.1 M NHS) 1:1 v/v at a flow of 25 μL·min^−1 for 4 min; injection of HSA solution at a flow of 25 μL·min^−1 for 8 min; capping on unreacted activated carboxyl groups by injection of 1 M ethanolamine solution (pH 9) at a flow of 25 μL·min^−1 for 8 min. The functionalized surface was then treated with repeated injection of 4 M NaCl, as a regenerating reagent, and conditioned overnight prior to use with pH 7.4 PBS (10 mM NaH2PO4 and 150 mM NaCl) as a running buffer. Each cycle (without the need of regeneration) for binding assay to HSA was carried out in PBS/4% v/v DMSO and consisted of a run buffer injection (60 s), injection of analyte single concentration for 120 s (ranging from 1 to 200 μM) at a flow 20 μL·min^−1, and a dissociation phase for 150 s (flow 20 μL·min^−1). Each measurement was performed at least in triplicate and analyzed by using QDAT software, vers 2.2.0.7 (non-linear regression analysis of 1:1 stoichiometric reversible binding model), and double referencing.
For data set [11], the target named is T2, human serum albumin (HSA). Briefly: Binding affinity to immobilized HSA by surface plasmon resonance (SPR).
Protocol: as §5, §6
Data set [12] has as its target T1, P-glycoprotein (P-gp). Set-up: expressed in transfected cells; host or cells: MDCK-MDR1 (gift from Prof. P. Borst, NKI-AVL); method as in PMID 29802687. As to conditions: MDCK-MDR1 cells; ref [9]; cited from earlier work.
In data set [13] the test system is A549 (lung adenocarcinoma) cells. The conditions noted are these: mean (SD), cited from earlier work.
Data set [14] deals with HCT116 (colon cancer) cells. The conditions noted are these: mean (SD), cited from earlier work.
The test system of data set [15] is HeLa (adenocarcinoma of the cervix uterus) cells. As to conditions: mean (SD), cited from earlier work.
Data set [16] concerns RD (rhabdomyosarcoma) cells. As to conditions: mean (SD), cited from earlier work.
Where [17] appears, read: Homo sapiens, Rhabdomyosarcoma cell.
Where [18] appears, read: aqueous buffer, PBS (50 mM, pH 7.4, 0.15 M KCl) at 25 ± 1 °C, read-out: S (solubility).
The mark [19] stands for this setting: pH 7.4, aqueous buffer, ‘practically insoluble’ threshold of US and European Pharmacopoeia, read-out: Solubility category in buffered water solution at neutral pH.

Sequence of multidrug-resistance-associated protein-1 (MRP1) (P33527 whole entry): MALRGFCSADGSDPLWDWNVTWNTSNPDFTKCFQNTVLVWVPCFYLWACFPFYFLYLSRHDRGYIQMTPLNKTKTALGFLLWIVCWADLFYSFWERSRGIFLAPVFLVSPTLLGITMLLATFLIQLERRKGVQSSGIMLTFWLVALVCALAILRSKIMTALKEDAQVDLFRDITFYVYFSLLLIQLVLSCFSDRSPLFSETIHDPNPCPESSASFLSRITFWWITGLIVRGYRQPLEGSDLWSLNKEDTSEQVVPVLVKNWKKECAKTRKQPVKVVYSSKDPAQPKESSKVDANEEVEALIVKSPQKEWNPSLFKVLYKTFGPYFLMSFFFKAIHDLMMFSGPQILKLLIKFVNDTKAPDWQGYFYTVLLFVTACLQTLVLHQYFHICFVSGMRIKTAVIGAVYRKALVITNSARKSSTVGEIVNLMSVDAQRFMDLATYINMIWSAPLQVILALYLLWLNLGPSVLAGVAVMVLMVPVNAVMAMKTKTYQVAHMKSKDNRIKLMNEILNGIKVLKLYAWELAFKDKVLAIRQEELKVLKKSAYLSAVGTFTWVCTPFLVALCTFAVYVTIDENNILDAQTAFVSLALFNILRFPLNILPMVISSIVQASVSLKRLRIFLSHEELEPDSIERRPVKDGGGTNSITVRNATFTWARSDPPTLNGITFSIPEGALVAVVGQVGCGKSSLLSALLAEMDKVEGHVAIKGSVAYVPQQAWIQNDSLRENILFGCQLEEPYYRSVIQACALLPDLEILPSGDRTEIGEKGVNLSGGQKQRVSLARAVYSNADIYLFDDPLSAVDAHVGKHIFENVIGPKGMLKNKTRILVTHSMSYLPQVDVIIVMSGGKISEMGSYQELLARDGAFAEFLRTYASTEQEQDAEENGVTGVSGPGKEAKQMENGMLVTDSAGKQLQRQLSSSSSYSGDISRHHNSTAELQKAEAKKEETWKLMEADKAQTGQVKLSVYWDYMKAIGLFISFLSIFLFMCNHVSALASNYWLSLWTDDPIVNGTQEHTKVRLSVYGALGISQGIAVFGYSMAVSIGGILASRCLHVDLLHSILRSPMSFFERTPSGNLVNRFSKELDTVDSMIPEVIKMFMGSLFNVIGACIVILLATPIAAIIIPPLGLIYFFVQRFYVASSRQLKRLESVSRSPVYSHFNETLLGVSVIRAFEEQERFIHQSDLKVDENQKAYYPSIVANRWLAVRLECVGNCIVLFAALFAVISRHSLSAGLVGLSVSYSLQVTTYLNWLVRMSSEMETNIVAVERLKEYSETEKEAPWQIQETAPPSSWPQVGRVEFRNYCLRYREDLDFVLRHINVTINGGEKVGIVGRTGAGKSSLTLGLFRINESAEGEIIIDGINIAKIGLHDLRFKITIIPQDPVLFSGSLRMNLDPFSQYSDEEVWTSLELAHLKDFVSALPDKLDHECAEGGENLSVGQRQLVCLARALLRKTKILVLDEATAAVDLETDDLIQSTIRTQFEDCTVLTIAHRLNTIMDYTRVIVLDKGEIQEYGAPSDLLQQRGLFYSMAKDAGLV
T2 sequence (P02768 25-609): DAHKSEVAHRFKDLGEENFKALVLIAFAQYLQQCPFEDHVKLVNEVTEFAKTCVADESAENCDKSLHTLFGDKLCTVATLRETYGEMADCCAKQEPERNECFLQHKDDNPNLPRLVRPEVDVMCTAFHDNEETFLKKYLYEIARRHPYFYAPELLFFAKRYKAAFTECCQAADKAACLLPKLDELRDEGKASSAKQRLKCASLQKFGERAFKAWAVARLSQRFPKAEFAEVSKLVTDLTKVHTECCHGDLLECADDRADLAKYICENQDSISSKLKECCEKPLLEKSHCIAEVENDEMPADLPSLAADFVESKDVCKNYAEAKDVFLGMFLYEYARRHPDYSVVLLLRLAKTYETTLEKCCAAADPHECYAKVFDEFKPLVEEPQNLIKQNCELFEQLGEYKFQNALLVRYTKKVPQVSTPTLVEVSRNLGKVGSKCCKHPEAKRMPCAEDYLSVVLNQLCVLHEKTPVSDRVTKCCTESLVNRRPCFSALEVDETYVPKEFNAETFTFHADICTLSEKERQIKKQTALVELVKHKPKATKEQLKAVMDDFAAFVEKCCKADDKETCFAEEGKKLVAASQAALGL
Sequence of P-gp versus MRP1 (P08183 whole entry): as the sequence (P08183 whole entry) above
Protocol for P-gp versus MRP1: as §3, §4

As for `CCOc1ccc(-c2c(CN3CCOCC3)cn3c2-c2cc(OCC)c(OCC)cc2CC3)cc1OCC` [Compound 8c, 1-(3,4-Diethoxyphenyl)-8,9-diethoxy-2-(morpholin-4-ylmethyl)-5,6-dihydropyrrolo[2,1-a]isoquinoline], the selectivity ratio at P-gp versus MRP1 was roughly 30. For the same molecule, the IC50 at P-glycoprotein (P-gp) [1] is < 0.5 µM and 0.45 µM; in data set [2], 12.1 µM; in data set [3] it was < 20 µM and 18.6 µM; in data set [3] (setting [17]), less than 21 µM; in data set [4], 17.5 µM; in [4] (Homo sapiens, HeLa), less than 21 µM. The IC50 is 15.7 µM in data set [6] (72 h); less than 21 µM in data set [6] (Homo sapiens, HCT-116, 72 h); 20.8 µM in [9] (72 h); less than 21 µM in data set [9] (Homo sapiens, A549, 72 h). For the same molecule, the values for the solubility at 2 h in [5] (setting [18]) and in data set [5] (setting [19]) were 41.7 µM and less than 100 µg/mL, respectively. Besides, in [7], the “Log k′w” value is given as 4.31. Also, in data set [8], the “Hydrolytic stability at pH 2” value is “stable”. Besides, in data set [8], the “Hydrolytic stability at pH 7.4” value is “stable”. Moreover, the “Predicted fraction bound to HSA” value in data set [10] is “less than 40%”. The molecule also yielded a Kd in [11] of 26.9 µM.
On to `CCOc1ccc(-c2c(C=O)cn3c2-c2cc(OCC)c(OCC)cc2CC3)cc1OCC` [Compound 4c], for which the IC50 at P-glycoprotein (P-gp) [12] was less than 0.5 µM; in data set [13] (ref [8]), 19.7 µM; in [14] (ref [8]), 11.8 µM; in [15] (ref [8]) it was 44.5 µM; in data set [16] (ref [8]), 21.3 µM.
In the case of `COc1ccc(-c2c(CN3CCOCC3)cn3c2-c2cc(OC)c(OC)cc2CC3)cc1` [Compound 8b, 8,9-Dimethoxy-1-(4-methoxyphenyl)-2-(morpholin-4-ylmethyl)-5,6-dihydropyrrolo[2,1-a]isoquinoline], the IC50 on P-glycoprotein (P-gp) [1] is < 0.5 µM and 0.36 µM; in data set [2], 1.8 µM; in data set [3] (setting [17]) it was 37.7 µM; in [4] (Homo sapiens, HeLa), 65.4 µM; in [6] (Homo sapiens, HCT-116, 72 h), 56.4 µM; in data set [9] (Homo sapiens, A549, 72 h), 66 µM. For the same molecule, the solubility at 2 h in data set [5] (setting [18]) was 112 µM; in [5] (setting [19]) it was less than 100 µg/mL. Further, the “Log k′w” value in data set [7] is 3.86. Moreover, the “Hydrolytic stability at pH 2” value in [8] is “stable over 4 h”. The “Hydrolytic stability at pH 7.4” value in data set [8] is listed as “stable over 4 h”. The “Predicted fraction bound to HSA” value in [10] is “less than 40%”. In [11], the Kd amounted to 19.3 µM.
Take `COc1cc2c(cc1OC)-c1c(-c3ccc(Cl)cc3)c(C=O)cn1CC2` [Compound 4a]: the IC50 on P-glycoprotein (P-gp) [1] was 25.3 µM; in [2], 21.9 µM; in data set [13] (ref [5]), 38.6 µM; in data set [14] (ref [5]), 22 µM; in [15] (ref [5]) it was 33 µM; in [16] (ref [5]), 17.6 µM. Further, the “P-gp/MRP1 selectivity (toward P-gp)” value on P-glycoprotein (P-gp) [1] (ratio of MRP1 and P-gp inhibition potency) is given as “unselective”. In addition, in data set [5] (setting [18]), the solubility at 2 h came to 6.66 µM. Besides, the “Log k′w” value in data set [7] is reported as 4.32. This molecule also came in with a Kd in [11] of 1.6 µM.
